Measurements: US10329304B2, “Compounds and methods for inhibition of hedgehog signaling and phosphodiesterase” (Vanderbilt University, priority 2014, dated 2019)
Several values for one entry are separate records, joined by “and”; a condition that tells them apart may be missing. Equal values may be shown once. Read-outs that look alike come from different tables or passages of the source. One block for each compound: values may come before it.

What was measured:
[1] = system: Hedgehog signaling (Gli-Luc reporter); experiment: Hh Gli-Luciferase reporter assay in Shh-Light2 cells; type: cell-based, mouse; conditions: Mus musculus, Shh Light2; for EC50: read-out: Shh Light2 Luc EC50
Procedure, shortened: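 Steady-Glo luminescence, corrected for cell titer by CellTiter-Glo, was measured after overnight exposure to compound concentrations. Signaling in Gli-Luc Shh-Light2 cells came either from Shh-conditioned medium, 3 μM purmorphamine or 20 nM SAG, or from transfected Gli-2, PDE4D3 or DN-PDE4D3 constructs.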

PDE4D2 = target: T1, PDE4D2 (Homo sapiens, UniProt Q08499); experiment: In vitro PDE assay; type: biochemical
T1 construct: purchased BPS Biosciences (San Diego, Calif.)
Description: (§1) In vitro PDE profiling and dose-response assays were performed by BPS Biosciences (San Diego, Calif.). Kinetic Mechanism of inhibition studies were conducted by Millipore (St. Louis, Mo.). In brief, the PDE assay measures fluorescent polarization of FAM-AMP as FAM-cAMP is converted to FAM-AMP by PDE), the binding agent.
(§2) A series of dilutions of the test compound were prepared with 10% DMSO in assay buffer and 5 μl of the dilution was added to a 50 μl reaction so that the final concentration of DMSO is 1% in all of reactions. All of the PDE enzymatic reactions were conducted in duplicate at room temperature for 60 minutes in a 50 μl mixture containing PDE assay buffer (10 mM Tris-HCl, pH7.4, 10 mM MaCl2, 0.05% Tween 20), 100 nM FAM-cAMP, a PDE enzyme and a test compound.
(§3) After the enzymatic reaction, 100 μl of a binding solution (1:100 dilution of the binding agent, which contains the nano beads that recognize FAM-AMP, with the binding agent diluent) was added to each reaction and the reaction was performed at room temperature for 60 minutes. Fluorescence intensity was measured at an excitation of 485 nm and an emission of 528 nm using a Tecan Infinite M1000 microplate reader. Assays done by Millipore were conducted similarly with changes noted below: […]

PDE4D3 = target: T2, PDE4D3 (Homo sapiens, UniProt Q08499); experiment: In vitro PDE assay; type: biochemical
T2 construct: purchased BPS Biosciences (San Diego, Calif.); kinetic studies by Millipore (St. Louis, Mo.)
Description: as §1, §2, §3

B16F11 = experiment: Cell viability assay (CellTiter-Blue, 72 hr); type: cell-based, Mouse; conditions: Mus musculus, B16-F10; Table 10; read-out: CELL KILLING EC50 (μM) Melanoma B16F10
Description: (§4) Cancer cell lines were seeded in 96 well tissue culture plate at a low density (10,000 cells per well) and treated with varying concentrations of Eggmanone. After 72 hr incubation, CellTiter-Blue Cell Viability Assay (Promega, Madison, Wis.) was then performed according to manufacturer's protocol. Absorbance was then measured in a Modulus Microplate reader (Promega, Madison, Wis.) at 590 nm and compared to cells treated with DMSO.
(§5) Cancer cell lines were seeded in 96 well tissue culture plate at a low density and treated with varying concentrations of compounds identified in Table 7. After 72 hr incubation, CellTiter-Blue Cell Viability Assay (Promega, Madison, Wis.) was then performed according to manufacturer's protocol. Absorbance was then measured in a Modulus Microplate reader (Promega, Madison, Wis.) at 590 nm and compared to cells treated with DMSO.

DU145 = experiment: Cell viability assay (CellTiter-Blue, 72 hr); type: cell-based, Human; conditions: DU-145; human cancer cells; read-out: CELL KILLING EC50 (μM) Prostate DU145
Description: as §4, §5

DaoY = experiment: Cell viability assay (CellTiter-Blue, 72 hr); type: cell-based, Human; conditions: Daoy; human cancer cells; read-out: CELL KILLING EC50 (μM) Medulloblastoma DaoY
Description: as §4, §5

HCT116 = experiment: Cell viability assay (CellTiter-Blue, 72 hr); type: cell-based, Human; conditions: HCT-116; human cancer cells; read-out: CELL KILLING EC50 (μM) Colon HTC116
Description: as §4, §5

HeLa = experiment: Cell viability assay (CellTiter-Blue, 72 hr); type: cell-based, Human; conditions: human cancer cells, read-out: CELL KILLING EC50 (μM) Cervix HeLa
Description: as §4, §5

MDA-MB- 231 = experiment: Cell viability assay (CellTiter-Blue, 72 hr); type: cell-based, Human; conditions: MDA-MB-231; human cancer cells; read-out: CELL KILLING EC50 (μM) Breast MDA-231
Description: as §4, §5

RKO = experiment: Cell viability assay (CellTiter-Blue, 72 hr); type: cell-based, Human; conditions: for EC50: RKO
Description: as §4, §5

RWGT2 = experiment: Cell viability assay (CellTiter-Blue, 72 hr); type: cell-based, Human; conditions: human cancer cells; read-out: CELL KILLING EC50 (μM) Lung Squam, NSCLC RWGT2
Description: as §4, §5

SW480 = experiment: Cell viability assay (CellTiter-Blue, 72 hr); type: cell-based, Human
Description: as §4, §5

MCF7 = experiment: Cell viability assay (CellTiter-Blue, 72 hr); type: cell-based; conditions: human cancer cells; for EC50: MCF7, read-out: CELL KILLING EC50 (μM) Breast MCF7
Description: as §4, §5

PC3 = experiment: Cell viability assay (CellTiter-Blue, 72 hr); type: cell-based; conditions: PC-3; human cancer cells; read-out: CELL KILLING EC50 (μM) Prostate PCx3
Description: as §4

H82 = experiment: Cell killing EC50 in H82 lung cancer cells (Table 10); type: cell-based; conditions: human cancer cells; for EC50: NCI-H82
Description: It is anticipated that compounds disclosed herein could serve as an anti-tumor, anti-angiogenic, anti-metastatic, agent in the treatment of cancer. To this end, a series of clinically relevant cancer lines were assayed and the cell-killing EC50s for compounds according to the subject matter disclosed herein are provided in Table 10.

PDE4D = PDE4D (Homo sapiens, UniProt Q08499); experiment: PDE4 inhibition assay (PDE4D IC50); type: biochemical; conditions: read-out: PDE4D IC50
Description: as §1, §2
After the enzymatic reaction, 100 μl of a binding solution (1:100 dilution of the binding agent, which contains the nano beads that recognize FAM-AMP, with the binding agent diluent) was added to each reaction and the reaction was performed at room temperature for 60 minutes. Fluorescence intensity was measured at an excitation of 485 nm and an emission of 528 nm using a Tecan Infinite M1000 microplate reader. Assays done by Millipore were conducted similarly with changes noted below:
Hedgehog signaling inhibition and PDE4 inhibition of various compounds disclosed herein was assayed as described herein above.

[2] = human cancer cells, read-out: CELL KILLING EC50 (μM) Colon RKO
[3] = SW480, human cancer cells, read-out: CELL KILLING EC50 (μM) Colon SW480

T1 sequence (Q08499 303-809): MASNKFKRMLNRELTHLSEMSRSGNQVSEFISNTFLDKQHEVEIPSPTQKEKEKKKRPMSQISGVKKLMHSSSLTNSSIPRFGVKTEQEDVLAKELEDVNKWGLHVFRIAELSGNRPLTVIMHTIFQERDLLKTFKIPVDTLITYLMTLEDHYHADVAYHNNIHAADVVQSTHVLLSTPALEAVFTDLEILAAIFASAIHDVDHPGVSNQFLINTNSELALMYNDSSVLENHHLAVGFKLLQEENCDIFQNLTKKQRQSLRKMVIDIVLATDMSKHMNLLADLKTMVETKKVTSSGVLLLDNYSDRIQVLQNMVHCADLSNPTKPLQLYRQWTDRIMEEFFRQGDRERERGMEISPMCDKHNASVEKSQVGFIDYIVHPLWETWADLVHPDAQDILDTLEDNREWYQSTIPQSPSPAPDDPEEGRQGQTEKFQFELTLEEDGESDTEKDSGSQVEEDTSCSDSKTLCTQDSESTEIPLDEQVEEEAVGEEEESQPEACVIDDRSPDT
T2 sequence (Q08499 1-673 isoform Q08499-2): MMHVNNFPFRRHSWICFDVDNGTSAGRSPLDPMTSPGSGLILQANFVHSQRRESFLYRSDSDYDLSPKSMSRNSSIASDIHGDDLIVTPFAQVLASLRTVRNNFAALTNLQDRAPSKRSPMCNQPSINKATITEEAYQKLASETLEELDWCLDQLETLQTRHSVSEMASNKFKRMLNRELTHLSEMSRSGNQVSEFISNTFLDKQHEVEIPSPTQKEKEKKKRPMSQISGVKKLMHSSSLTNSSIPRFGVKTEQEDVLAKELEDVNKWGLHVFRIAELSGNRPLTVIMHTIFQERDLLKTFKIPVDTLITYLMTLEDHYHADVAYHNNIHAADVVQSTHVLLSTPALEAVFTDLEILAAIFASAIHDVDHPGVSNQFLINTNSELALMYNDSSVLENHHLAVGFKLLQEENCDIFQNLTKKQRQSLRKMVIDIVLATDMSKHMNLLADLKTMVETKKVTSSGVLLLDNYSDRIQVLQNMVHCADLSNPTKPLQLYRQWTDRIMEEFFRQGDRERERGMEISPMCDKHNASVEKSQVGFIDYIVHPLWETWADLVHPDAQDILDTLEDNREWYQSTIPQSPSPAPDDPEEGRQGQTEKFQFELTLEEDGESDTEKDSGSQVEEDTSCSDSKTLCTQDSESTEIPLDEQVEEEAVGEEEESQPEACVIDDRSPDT
PDE4D, sequence (Q08499 1-673 isoform Q08499-2): as above

EC50 ([1]; Table 9B): > 10 µM
Compound: C=CCn1c(SCC(=O)c2ccccc2)nc2sc(C)cc2c1=O [HI277]
EC50 (B16F11): > 100 µM
EC50 (DU145): 180 µM
EC50 (DaoY): 247 µM
EC50 (HCT116): 136 µM
EC50 (HeLa): 5.11 µM
EC50 (MDA-MB- 231): 186 µM
EC50 (RKO; [2]): > 100 µM
EC50 (RWGT2): 30.5 µM
EC50 (SW480; [3]): 0.03 µM
EC50 (MCF7): > 100 µM
EC50 (PC3): > 100 µM
EC50 (H82): > 100 µM

EC50 ([1]; Table 9B): > 10 µM
Compound: Cn1c(SCC(=O)c2ccc(F)cc2)nc2sc3c(c2c1=O)CCCC3 [HI302]
EC50 (B16F11): 16 µM
EC50 (DU145): 0.078 µM
EC50 (DaoY): 26.6 µM
EC50 (HCT116): 21.9 µM
EC50 (HeLa): 20.2 µM
EC50 (MDA-MB- 231): 18.7 µM
EC50 (RKO; [2]): 0.0096 µM
EC50 (RWGT2): 22.9 µM
EC50 (SW480; [3]): 3.3 µM
EC50 (MCF7): > 100 µM
EC50 (PC3): > 100 µM
EC50 (H82): > 100 µM

EC50 ([1]; Table 9B): > 10 µM
IC50 (PDE4D3; Table 9B): 20 µM
Compound: CCCCn1c(SCC(=O)c2ccccc2)nc2sc3c(c2c1=O)CCC3 [HI352]
EC50 (B16F11): 109 µM
EC50 (DU145): 98.1 µM
EC50 (DaoY): 100 µM
EC50 (HCT116): 74.7 µM
EC50 (HeLa): 114 µM
EC50 (MDA-MB- 231): 84.5 µM
EC50 (RKO; [2]): 100 µM
EC50 (RWGT2): 73.8 µM
EC50 (SW480; [3]): 0.287 µM
EC50 (MCF7): > 100 µM
EC50 (PC3): 0.03 µM
EC50 (H82): > 100 µM

EC50 ([1]; Table 9B): 4.6 to 9.5 µM
Compound: C=CCn1c(SCC(=O)c2ccc(Cl)s2)nc2sc(C)c(C)c2c1=O [HI499]
EC50 (B16F11): 46 µM
EC50 (DU145): 48.8 µM
EC50 (DaoY): 177 µM
EC50 (HCT116): 28.1 µM
EC50 (HeLa): 441 µM
EC50 (MDA-MB- 231): > 100 µM
EC50 (RKO; [2]): 35.7 µM
EC50 (RWGT2): 45.8 µM
EC50 (SW480; [3]): 0.69 µM
EC50 (MCF7): 2.67 µM
EC50 (PC3): 202 µM
EC50 (H82): > 100 µM

EC50 ([1]; Table 9B): < 1 µM
IC50 (PDE4D2; Table 9B): 7.4 µM
IC50 (PDE4D3; Table 9B): 14 µM
Compound: C=CCn1c(SCC(=O)c2ccccc2)nc2scc(-c3ccccc3)c2c1=O [HI696]
EC50 (B16F11): 0.0066 µM
EC50 (DU145): > 100 µM
EC50 (DaoY): 2.95 µM
EC50 (HCT116): 3.2 µM
EC50 (HeLa): 3.75 µM
EC50 (MDA-MB- 231): 1.2 µM
EC50 (RKO; [2]): > 100 µM
EC50 (RWGT2): 64.9 µM
EC50 (SW480; [3]): 2.6 µM
EC50 (MCF7): > 100 µM
EC50 (PC3): > 100 µM
EC50 (H82): > 100 µM

EC50 ([1]; Table 9B): 2.44 µM
Compound: C=C(C)Cn1c(SCC(=O)c2ccc(F)cc2)nc2sc3c(c2c1=O)CCCC3 [HI0863]
EC50 (B16F11): 4.46 µM
EC50 (DU145): 2.38 µM
EC50 (DaoY): 39.8 µM
EC50 (HCT116): 0.078 µM
EC50 (HeLa): 12.2 µM
EC50 (MDA-MB- 231): 3.12 µM
EC50 (RKO; [2]): 42.8 µM
EC50 (RWGT2): 38.8 µM
EC50 (SW480; [3]): 5.4 µM
EC50 (MCF7): > 100 µM
EC50 (PC3): 47.7 µM
EC50 (H82): > 100 µM

The next lines start with the compound.

Compound: C=C(C)Cn1c(SCC(=O)N2Cc3ccccc3C2)nc2sc3c(c2c1=O)CCCC3 [Formula 1KMT]
EC50 ([1]; Table 9A): > 20 µM
IC50 (PDE4D2; Table 9A): 46 µM
IC50 (PDE4D3; Table 9A): 30 µM
EC50 (B16F11): 61.7 µM
EC50 (DU145): 32.4 µM
EC50 (DaoY): 58.2 µM
EC50 (HCT116): 89.2 µM
EC50 (HeLa): 49.7 µM
EC50 (MDA-MB- 231): 68.3 µM
EC50 (RKO; [2]): 75.6 µM
EC50 (RWGT2): 51.1 µM
EC50 (SW480; [3]): 4.89 µM
EC50 (MCF7): 1.08 µM
EC50 (PC3): 74 µM
CELL KILLING EC50 (μM) Lung H82 (H82): UnCh

Compound: C=CCn1c(SCC(=O)N2CCN(C)CC2)nc2sc3c(c2c1=O)CCCC3 [Formula 1KN7]
IC50 [1]: 10 µM
EC50 ([1]; Table 9A): 5 to 10 µM
IC50 (PDE4D2; Table 9A): 1.7 µM
IC50 (PDE4D3; Table 9A): 1.8 µM
IC50 (PDE4D): 2.1 µM and 2.08 µM
EC50 (B16F11): 25.8 µM
EC50 (DU145): 91.4 µM
EC50 (DaoY): 58.6 µM
EC50 (HCT116): 21.3 µM
EC50 (HeLa): 27.5 µM
EC50 (MDA-MB- 231): 10.3 µM
EC50 (RKO; 72 h, read-out: EC50 (50% reduction of viable cell count at 72 hours), Human Colon Carcinoma): 8.39 µM
EC50 (RKO; [2]): 8.39 µM
EC50 (RWGT2): 28.4 µM
EC50 (SW480; 72 h, read-out: EC50 (50% reduction of viable cell count at 72 hours), SW480, Human Colorectal Adenocarcinoma): 0.057 µM
EC50 (SW480; [3]): 0.0574 µM
CELL KILLING EC50 (μM) Breast MCF7 (MCF7): UnCh
EC50 (PC3): 45.7 µM
CELL KILLING EC50 (μM) Lung H82 (H82): UnCh

Compound: C=C(C)Cn1c(SCC(=O)c2ccc(-c3ccccc3)cc2)nc2sc3c(c2c1=O)CCCC3 [Formula 1KXQ]
EC50 ([1]; Table 9A): > 20 µM
IC50 (PDE4D2; Table 9A): > 100 µM
IC50 (PDE4D3; Table 9A): > 100 µM
EC50 (B16F11): 28.7 µM
EC50 (DU145): 0.029 µM
EC50 (DaoY): 46.8 µM
EC50 (HCT116): 12 µM
EC50 (HeLa): 12.2 µM
EC50 (MDA-MB- 231): > 100 µM
CELL KILLING EC50 (μM) Colon RKO (RKO; human cancer cells): UnCh
EC50 (RWGT2): 80.9 µM
EC50 (SW480; [3]): 44 µM
CELL KILLING EC50 (μM) Breast MCF7 (MCF7): UnCh
EC50 (PC3): 41.1 µM
CELL KILLING EC50 (μM) Lung H82 (H82): UnCh
